Legend:
Format in all cases: cell-based
SARS-CoV-2 CH.1.1 = test system: SARS-CoV-2 CH.1.1
SARS-CoV-2 XBB.1.5 = test system: SARS-CoV-2 XBB.1.5
[1] = test system: VSVΔG-G (vesicular stomatitis virus glycoprotein); assay: microbe, parasite or virus in culture; conditions: for IC50: Vesicular stomatitis virus, read-out: IC50, VSVΔG pseudotypes: G; for IC50 against VSVΔG-G: 0.3125–40 μM
[2] = test system: VSVΔG-Sδ (SARS-CoV-2 Delta S glycoprotein); assay: microbe, parasite or virus in culture; conditions: for IC50: Severe acute respiratory syndrome coronavirus 2, read-out: IC50 against VSVΔG-Sδ
[3] = test system: VSVΔG-SM (MERS-CoV S glycoprotein); conditions: 0.3125–40 μM
[4] = test system: VSVΔG-Sα (SARS-CoV-2 Alpha S glycoprotein); assay: microbe, parasite or virus in culture; conditions: Severe acute respiratory syndrome coronavirus 2, read-out: IC50 against VSVΔG-Sα
[5] = test system: SARS-CoV-2 Delta (B.1.617.2)
[6] = test system: VSVΔG-Sο (SARS-CoV-2 Omicron S glycoprotein); assay: microbe, parasite or virus in culture; conditions: Severe acute respiratory syndrome coronavirus 2, read-out: IC50 against VSVΔG-Sο

SMILES	IC50, SARS-CoV-2: CH.1.1 viral replication (SARS-CoV-2 CH.1.1)	IC50, SARS-CoV-2: XBB.1.5 viral replication (SARS-CoV-2 XBB.1.5)	IC50 [1] [nM]	IC50 against VSVΔG-G [1]	IC50 against VSVΔG-SM [3]	IC50 [4] [nM]	IC50 [2] [nM]	other results
Cc1cccc(NC(=O)C[S+]([O-])c2nc(-c3ccccc3)cn2-c2ccc(Cl)cc2)c1C (racemic) [PCM-0282478, 2-((1-(4-chlorophenyl)-4-phenyl-1H-imidazol-2-yl)sulfinyl)-N-(2,3-dimethylphenyl)acetamide]	neither inhibited	neither inhibited	> 10000					times more potent than synthesized PCM-0163855 against VSVΔG-Sδ [2]: approximately 10 times
CNC(=O)C(C#N)(Cc1cc(Cl)cc2c1OCOC2)Cc1cc(Cl)cc2c1OCOC2 [PCM-0068389, N-methyl3-(6-chloro-2,4-dihydro-1,3-benzodioxin-8-yl)-2-[(6-chloro-2,4-dihydro-1,3-benzodioxin-8-yl)methyl]-2-cyanopropionamide]				some activity	lost all activity			
N=C(N)Nc1ccc(C(=O)Oc2ccc3cc(C(=N)N)ccc3c2)cc1 [PCM-0095060, 6-amidino-2-naphthyl p-guanidinobenzoate, reference compound]				no significant activity		920	310	inhibition of bona fide SARS-CoV-2 Delta virus replication [5]: failed to inhibit
Cc1cccc(NC(=O)CS(=O)(=O)c2nc(-c3ccccc3)cn2-c2ccc(Cl)cc2)c1C [PCM-0163855, 2-((1-(4-chlorophenyl)-4-phenyl-1H-imidazol-2-yl)sulfonyl)-N-(2,3-dimethylphenyl)acetamide]	neither inhibited	neither inhibited	> 10000		inactive	370	450	IC50 [6]: 41200 nM
COc1ccc2cc3c(N)nn(C(=O)Cc4c[nH]c5ccccc45)c3nc2c1 [PCM-0166392, 1-{6-amino-12-methoxy-2,4,5-triazatricyclo[7.4.0.0³,⁷]trideca-1,3(7),5,8,10,12-hexaen-4-yl}-2-(3-indolyl)-1-ethanone]					not selective			
Nc1nc(Nc2ccccc2)sc1C(=O)c1ccccc1Cl [PCM-0179622, (4-amino-2-anilino-1,3-thiazol-5-yl)(o-chlorophenyl)methanone]					not selective			
